From US7482341B2, “Pyridines” (Hoffmann-La Roche Inc., priority 2004, dated 2009)
pIC50: −log10 of the molar value.

Legend:
11beta-HSD1 [1] = molecular target: T1, 11beta-HSD1 (Homo sapiens, UniProt P28845); assay: Microsome assay (cortisone to cortisol, ELISA); type: biochemical; parameters: made in house; host or cells: HEK293 cells (ATCC CRL-1573), transient transfection with pcDNA3 construct; microsomal fraction; details: microsomes from HEK293 cells transiently expressing human 11beta-HSD1; 60 min, 37° C.; cortisol production 50% reduced; read-out: h 11-beta-HSD 1 IC50
T1 sequence (P28845 whole entry): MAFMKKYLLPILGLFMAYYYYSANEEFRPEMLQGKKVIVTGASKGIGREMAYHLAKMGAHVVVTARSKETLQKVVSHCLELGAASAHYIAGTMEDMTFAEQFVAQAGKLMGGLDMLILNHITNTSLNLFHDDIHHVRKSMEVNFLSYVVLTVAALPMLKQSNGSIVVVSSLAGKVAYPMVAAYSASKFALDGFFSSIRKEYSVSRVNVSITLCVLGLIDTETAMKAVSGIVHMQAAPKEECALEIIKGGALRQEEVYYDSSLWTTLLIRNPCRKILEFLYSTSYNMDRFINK
Protocol: Transient Expression and Partial Purification:
The cDNA encoding the human 11beta-HSD1 protein was cloned into the expression vector pcDNA3 ([…]). This construct (for details see Alex Odermatt et al.; J Biol Chem.,1999, Vol. 274, Issue 40, 28762-28770) was used to transiently express the protein in HEK293 cells (ATCC number: CRL-1573, described in Graham, F. L., Smiley, J., Russell, W. C., Nairn, R.; (1977)) using lipofectamine. 48h after transfection cells were washed twice with ice-cold PBS (Phsophate buffered Saline). To 1 volume of cell suspension in PBS 2 volumes of ice-cold lysis buffer (50 mM Tris; pH7.5; 1 mM EDTA; 100 mM NaCl) were added. The cells were lysed by Potter-homogenization (20 strokes). The resulting homogenate was sonicated wit a tip sonicator (10% output; 2×30 sec.) and cleared by a low speed centrifugation (10 min×9000 g; 4° C.). […]
Microsomes isolated from HEK293 cells transiently expressing human 11beta-HSD1 (for details see above) were incubated in assay buffer (100 mM NaCl; 1 mM EDTA; 1 mM EGTA; 1 mM MgCl; 250 mM Sucrose; 20 mM Tris pH 7.4; Cortisone 50-200 nM and NADPH 1 mM) together with different concentrations of test substances. […] The amount of Cortisol produced in this assay was determined using a commercially available, ELISA-based Cortisol-detection kit (Distributed by Assay Design, Inc.). […]

11beta-HSD1 [2] = molecular target: T1, 11beta-HSD1; parameters: host or cells: human subjects (in vivo); details: humans, treatment with carbenoxolone; cited from earlier work

| pIC50 (11beta-HSD1 [1]) | SMILES | insulin sensitivity (11beta-HSD1 [2]) |
| --- | --- | --- |
| 7.80 | O=S(=O)(Nc1cccc(COCc2ccc(F)cc2)n1)c1ccc(F)cc1 [Example 105, 4-Fluoro-N-[6-(4-fluoro-benzyloxymethyl)-pyridin-2-yl]-benzenesulfonamide] |  |
| 8.30 | Cc1c(Cl)cccc1S(=O)(=O)Nc1ccc(Oc2ccc(F)cc2)cn1 [Example 186, 3-Chloro-N-[5-(4-fluoro-phenoxy)-pyridin-2-yl]-2-methyl-benzenesulfonamide benzenesulfonamide] |  |
|  | CC1(C)[C@@H](OC(=O)CCC(=O)O)CC[C@]2(C)[C@H]3C(=O)C=C4[C@@H]5C[C@@](C)(C(=O)O)CC[C@]5(C)CC[C@@]4(C)[C@]3(C)CC[C@@H]12 [carbenoxolone] | increase in insulin sensitivity |
